Columns and labels:
Assay type in all cases: in vivo
[1] = system: monochoria (Mo); experiment: Test Example 1: herbicidal effects by paddy field soil treatment; conditions: 100 g of the active ingredient per 10 ares, 21st day after the application, index 0-5 of Table 47;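 further: grade of growth control; 5 = at least 90%; 4 = 70 to 90%; 3 = 50 to 70%; 2 = 30 to 50%; 1 = 10 to 30%; 0 = under 10%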
How it was run: (§1)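 Greenhouse pot test in flooded paddy soil, dosed at 100 g a.i. per 10 ares; effect scored on day 21.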

[2] = system: bulrush (Sc); experiment: as above; conditions: 100 g of the active ingredient per 10 ares, 21st day after the application, index 0-5 of Table 47;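 further: grade of growth control; 5 = at least 90%; 4 = 70 to 90%; 3 = 50 to 70%; 2 = 30 to 50%; 1 = 10 to 30%; 0 = under 10%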
How it was run: as §1

[3] = system: barnyardgrass (Ec); experiment: as above; conditions: 100 g of the active ingredient per 10 ares, 21st day after the application, index 0-5 of Table 47
How it was run: as §1

[4] = system: rice flatsedge (Ci); experiment: Test Example 2: herbicidal effects by upland field soil treatment; conditions: 100 g of the active ingredient per 10 ares, 21st day after the application, index 0-5 of Table 47;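 further: grade of growth control; 5 = at least 90%; 4 = 70 to 90%; 3 = 50 to 70%; 2 = 30 to 50%; 1 = 10 to 30%; 0 = under 10%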
Text: (§2) (Test on Herbicidal Effects by Upland Field Soil Treatment)

[5] = system: common lambsquarters (Ch); experiment: as above; conditions: 100 g of the active ingredient per 10 ares, 21st day after the application, index 0-5 of Table 47
Text: as §2

[6] = system: pale smartweed (Po); experiment: as above; conditions: 100 g of the active ingredient per 10 ares, 21st day after the application, index 0-5 of Table 47
Text: as §2

[7] = system: barnyardgrass (Ec); experiment: as above; conditions: 100 g of the active ingredient per 10 ares, 21st day after the application, index 0-5 of Table 47
Text: as §2

[8] = system: Digitaria ciliaris (Di); experiment: as above; conditions: 100 g of the active ingredient per 10 ares, 21st day after the application, index 0-5 of Table 47;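 further: grade of growth control; 5 = at least 90%; 4 = 70 to 90%; 3 = 50 to 70%; 2 = 30 to 50%; 1 = 10 to 30%; 0 = under 10%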
Text: as §2

[9] = system: slender amaranth (Am); experiment: as above; conditions: 100 g of the active ingredient per 10 ares, 21st day after the application, index 0-5 of Table 47
Text: as §2

[10] = system: rice flatsedge (Ci); experiment: Test Example 3: herbicidal effects by upland field foliage treatment; design: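 grade of growth control; 5 = at least 90%; 4 = 70 to 90%; 3 = 50 to 70%; 2 = 30 to 50%; 1 = 10 to 30%; 0 = under 10%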; conditions: 100 g of the active ingredient per 10 ares, evaluated on the 14th day after treatment
How it was run: (§3)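 Seeds → sand pot (120 cm^2) → soil cover → greenhouse 2 wk → foliar treatment → greenhouse → herbicidal score at 14 d post-treatment against graded standards.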

[11] = system: common lambsquarters (Ch); experiment: as above; design: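 grade of growth control; 5 = at least 90%; 4 = 70 to 90%; 3 = 50 to 70%; 2 = 30 to 50%; 1 = 10 to 30%; 0 = under 10%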; conditions: 100 g of the active ingredient per 10 ares, evaluated on the 14th day after treatment
How it was run: as §3

[12] = system: pale smartweed (Po); experiment: as above; design: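 grade of growth control; 5 = at least 90%; 4 = 70 to 90%; 3 = 50 to 70%; 2 = 30 to 50%; 1 = 10 to 30%; 0 = under 10%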; conditions: 100 g of the active ingredient per 10 ares, evaluated on the 14th day after treatment
How it was run: as §3

[13] = system: barnyardgrass (Ec); experiment: as above; design: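 grade of growth control; 5 = at least 90%; 4 = 70 to 90%; 3 = 50 to 70%; 2 = 30 to 50%; 1 = 10 to 30%; 0 = under 10%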; conditions: 100 g of the active ingredient per 10 ares, evaluated on the 14th day after treatment
How it was run: as §3

[14] = system: Diaitaria ciliaris (Di); experiment: as above; design: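 grade of growth control; 5 = at least 90%; 4 = 70 to 90%; 3 = 50 to 70%; 2 = 30 to 50%; 1 = 10 to 30%; 0 = under 10%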; conditions: 100 g of the active ingredient per 10 ares, evaluated on the 14th day after treatment
How it was run: as §3

[15] = system: slender amaranth (Am); experiment: as above; design: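 grade of growth control; 5 = at least 90%; 4 = 70 to 90%; 3 = 50 to 70%; 2 = 30 to 50%; 1 = 10 to 30%; 0 = under 10%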; conditions: 100 g of the active ingredient per 10 ares, evaluated on the 14th day after treatment
How it was run: as §3

Row | SMILES | Herbicidal effects Mo [1] | Herbicidal effects Sc [2] | Herbicidal effects Ec [3] | Herbicidal effects Ci [4] | Herbicidal effects Ch [5] | Herbicidal effects Po [6] | Herbicidal effects Ec [7] | Herbicidal effects Di [8] | Herbicidal effects Am [9] | Herbicidal effects Ci [10] | Herbicidal effects Ch [11] | Herbicidal effects Po [12] | Herbicidal effects Ec [13] | Herbicidal effects Di [14] | Herbicidal effects Am [15]
1 | C=CCOc1cc(-c2cc(C)c(C(F)(F)F)n(C)c2=O)c(F)cc1Cl [1-77] | 5 | 5 | 5 | 5 | 5 | 5 | 5 | 5 | 5 | 5 | 5 | 5 | 5 | 5 | 5
2 | C#CC(C)Oc1cc(-c2cc(C)c(C(F)(F)F)n(C)c2=O)c(F)cc1Cl (stereo not drawn) [1-78] | 5 | 5 | 5 | 5 | 5 | 5 | 5 | 5 | 5 | 5 | 5 | 5 | 5 | 5 | 5
3 | Cc1cc(-c2cc(OC(C)C)c(Cl)cc2F)c(=O)n(C)c1C(F)(F)F [1-80] | 5 | 5 | 5 | 5 | 5 | 5 | 5 | 5 | 5 | 5 | 5 | 5 | 5 | 5 | 5
4 | COC(=O)COc1cc(-c2ccc(C(F)(F)F)n(C)c2=O)c(F)cc1Cl [1-99] | 5 | 5 | 5 | 5 | 5 | 5 | 5 | 5 | 5 | 5 | 5 | 5 | 5 | 5 | 5
5 | Cn1c(C(F)(F)F)ccc(-c2cc(OCC(=O)OC3CCCC3)c(Cl)cc2F)c1=O [1-102] | 5 | 5 | 5 | 5 | 5 | 4 | 5 | 5 | 5 | 5 | 5 | 5 | 5 | 5 | 5
6 | CCCOC(=O)COc1cc(-c2ccc(C(F)(F)F)n(C)c2=O)c(F)cc1Cl [1-104] | 5 | 5 | 5 | 5 | 5 | 5 | 5 | 5 | 5 | 5 | 5 | 5 | 5 | 5 | 5
7 | Cn1c(C(F)(F)F)ccc(-c2cc(OCC(=O)O)c(Cl)cc2F)c1=O [1-105] | 5 | 5 | 5 | 5 | 5 | 5 | 5 | 5 | 5 | 5 | 5 | 5 | 5 | 5 | 5
8 | Cn1c(C(F)(F)F)ccc(-c2cc(C3OCCO3)c(Cl)cc2F)c1=O [1-133] | 5 | 5 | 5 | 5 | 5 | 5 | 5 | 5 | 5 | 5 | 5 | 5 | 5 | 5 | 5
9 | Cn1c(C(F)(F)F)ccc(-c2cc(CO)c(Cl)cc2F)c1=O [1-135] | 5 | 5 | 5 | 5 | 5 | 5 | 5 | 5 | 5 | 5 | 5 | 5 | 5 | 5 | 5
10 | CCS(=O)(=O)N(C)c1cc(-c2ccc(C(F)(F)F)n(C)c2=O)c(F)cc1Cl [1-140] | 5 | 5 | 5 | 5 | 5 | 5 | 5 | 5 | 5 | 5 | 5 | 5 | 4 | 5 | 5
11 | Cn1c(C(F)(F)F)ccc(-c2cc(C(=O)[O-])c(Cl)cc2F)c1=O.[Na+] [1-144] | 5 | 5 | 5 | 5 | 5 | 5 | 5 | 5 | 5 | 5 | 5 | 5 | 5 | 5 | 5
12 | CCCCOC(=O)COc1cc(-c2ccc(C(F)(F)F)n(C)c2=O)c(F)cc1Cl [1-148] | 5 | 5 | 5 | 5 | 5 | 5 | 5 | 5 | 5 | 5 | 5 | 5 | 5 | 5 | 5
13 | CCCCCCOC(=O)COc1cc(-c2ccc(C(F)(F)F)n(C)c2=O)c(F)cc1Cl [1-149] | 5 | 5 | 5 | 5 | 5 | 5 | 5 | 5 | 5 | 5 | 5 | 5 | 5 | 5 | 5
14 | CC=CCOc1cc(-c2ccc(C(F)(F)F)n(C)c2=O)c(F)cc1Cl [1-152] | 5 | 5 | 5 | 5 | 5 | 5 | 5 | 5 | 5 | 5 | 5 | 5 | 5 | 5 | 5
15 | COC(=O)c1cc(-c2ccc(C(F)(F)F)n(C)c2=O)c(F)cc1Cl [1-157] | 5 | 5 | 5 | 5 | 5 | 5 | 5 | 5 | 5 | 5 | 5 | 5 | 5 | 5 | 5
16 | CC(Oc1cc(-c2ccc(C(F)(F)F)n(C)c2=O)c(F)cc1Cl)C1CC1 (stereo not drawn) [1-161] | 5 | 5 | 5 | 5 | 5 | 5 | 5 | 5 | 5 | 5 | 5 | 5 | 5 | 5 | 5
17 | CCOCCOc1cc(-c2ccc(C(F)(F)F)n(C)c2=O)c(F)cc1Cl [1-163] | 5 | 5 | 5 | 5 | 5 | 5 | 5 | 5 | 5 | 5 | 5 | 5 | 5 | 5 | 5
18 | Cn1c(C(F)(F)F)ccc(-c2cc(C=NO)c(Cl)cc2F)c1=O [1-164] | 5 | 5 | 5 | 5 | 5 | 5 | 5 | 5 | 5 | 5 | 5 | 5 | 5 | 5 | 5
19 | Cn1c(C(F)(F)F)ccc(-c2cc(SC3CCCO3)c(Cl)cc2F)c1=O (stereo not drawn) [1-165] | 5 | 5 | 5 | 5 | 5 | 5 | 5 | 5 | 5 | 5 | 5 | 5 | 5 | 5 | 5
20 | CCCCOc1cc(-c2ccc(C(F)(F)F)n(C)c2=O)c(F)cc1Cl [1-166] | 5 | 5 | 5 | 5 | 5 | 5 | 5 | 5 | 5 | 5 | 5 | 5 | 4 | 5 | 5
